Results on 25 compounds are retold here after patent publication US10870651B2, “Inhibitors of cyclin-dependent kinase 7 (CDK7)” (Dana-Farber Cancer Institute, Inc., priority 2014, dated 2020).

Broadly, the IC50 is the concentration that gives 50% inhibition.

Structures are written as SMILES.

Sequence of CDK7 (P50613 whole entry): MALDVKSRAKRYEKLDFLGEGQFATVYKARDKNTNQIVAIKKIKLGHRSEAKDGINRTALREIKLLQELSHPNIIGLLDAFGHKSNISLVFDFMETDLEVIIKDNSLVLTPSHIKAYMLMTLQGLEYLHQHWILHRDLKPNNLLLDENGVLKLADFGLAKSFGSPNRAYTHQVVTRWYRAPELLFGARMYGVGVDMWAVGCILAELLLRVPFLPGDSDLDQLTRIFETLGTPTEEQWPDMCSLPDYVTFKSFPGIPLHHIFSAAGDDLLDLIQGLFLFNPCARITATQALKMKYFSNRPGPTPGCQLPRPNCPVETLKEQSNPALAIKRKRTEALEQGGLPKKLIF
Sequence of CDK7 (P51946 whole entry partner): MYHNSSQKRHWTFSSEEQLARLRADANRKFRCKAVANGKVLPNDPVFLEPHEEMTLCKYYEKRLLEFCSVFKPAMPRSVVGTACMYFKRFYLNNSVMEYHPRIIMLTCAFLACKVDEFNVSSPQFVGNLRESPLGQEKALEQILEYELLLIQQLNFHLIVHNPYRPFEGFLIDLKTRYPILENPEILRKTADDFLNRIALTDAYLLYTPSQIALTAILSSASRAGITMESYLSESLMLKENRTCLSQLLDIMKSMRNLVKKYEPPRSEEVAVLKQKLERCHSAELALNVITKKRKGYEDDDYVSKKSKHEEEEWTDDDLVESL
Sequence of CDK7 (P51948 whole entry partner): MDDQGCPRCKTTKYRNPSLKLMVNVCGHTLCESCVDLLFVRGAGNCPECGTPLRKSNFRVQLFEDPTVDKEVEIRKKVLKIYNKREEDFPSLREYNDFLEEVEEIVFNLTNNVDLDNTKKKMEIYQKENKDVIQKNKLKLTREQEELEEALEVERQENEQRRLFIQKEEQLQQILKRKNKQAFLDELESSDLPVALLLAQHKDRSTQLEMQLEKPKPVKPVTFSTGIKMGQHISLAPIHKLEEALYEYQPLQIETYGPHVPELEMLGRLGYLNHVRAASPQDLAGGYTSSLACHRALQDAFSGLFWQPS

The experiment concerns the target CDK7 (Homo sapiens (Human), UniProt P50613). As to the kind of experiment: Inhibition of kinase activity, CDK7. The format is biochemical. The settings on record: co-factors cyclin H and MNAT1. The procedure: Compounds of the invention were assayed for activity against a variety of different kinases. Exemplary results are presented as calculated IC50 values (Table A1 & A2). In Table A1 and A2 “A” represents a calculated IC50 value of less than 100 nM; “B” represents a calculated IC50 value of greater than or equal to 100 nM and less than 1 μM; and “C” represents a calculated IC50 value of 1 μM or greater. The co-factors used for each kinase in the assays were as follows: CDK7: cyclin H and MNAT1; CDK2: cyclin A; CDK9: cyclin K.
`C=CC(=O)Nc1cccc(C(=O)Nc2ccc(Nc3n[nH]c4c3CN(C(=O)N[C@H](CN(C)C)c3ccccc3)C4(C)C)cc2)c1` [Compound 103, (S)-3-((4-(3-acrylamidobenzamido)phenyl)amino)-N-(2-(dimethylamino)-1-phenylethyl)-6,6-dimethyl-4,6-dihydropyrrolo[3,4-c]pyrazole-5(1H)-carboxamide] came in with an IC50 of under 100 nM. `C=CC(=O)Nc1cccc(C(=O)Nc2cccc(Nc3n[nH]c4c3CN(C(=O)N[C@H](CN(C)C)c3ccccc3)C4(C)C)c2)c1` [Compound 105, (S)-3-((3-(3-acrylamidobenzamido)phenyl)amino)-N-(2-(dimethylamino)-1-phenylethyl)-6,6-dimethyl-4,6-dihydropyrrolo[3,4-c]pyrazole-5(1H)-carboxamide] yielded an IC50 of under 100 nM. The same measure for `C=CC(=O)Nc1ccc(C(=O)Nc2cccc(Nc3n[nH]c4c3CN(C(=O)NC(C)CN(C)C)C4(C)C)c2)cc1` (stereo not shown) [Compound 108, 3-((3-(4-acrylamidobenzamido)phenyl)amino)-N-(1-(dimethylamino)propan-2-yl)-6,6-dimethyl-4,6-dihydropyrrolo[3,4-c]pyrazole-5(1H)-carboxamide]: under 100 nM; for `CN(C)C/C=C/C(=O)Nc1ccc(C(=O)Nc2cccc(Nc3n[nH]c4c3CN(C(=O)N[C@H](CO)c3ccccc3)C4(C)C)c2)cc1` [Compound 109, (S,E)-3-((3-(4-(4-(dimethylamino)but-2-enamido)benzamido)phenyl)amino)-N-(2-hydroxy-1-phenylethyl)-6,6-dimethyl-4,6-dihydropyrrolo[3,4-c]pyrazole-5(1H)-carboxamide]: under 100 nM. In turn, `C=CC(=O)Nc1cccc(Nc2n[nH]c3c2CN(C(=O)N[C@H](CN(C)C)c2ccccc2)C3(C)C)c1` [Compound 110, (S)-3-((3-acrylamidophenyl)amino)-N-(2-(dimethylamino)-1-phenylethyl)-6,6-dimethyl-4,6-dihydropyrrolo[3,4-c]pyrazole-5(1H)-carboxamide] gave an IC50 of under 100 nM. The same measure for `C=CC(=O)Nc1ccc(Nc2n[nH]c3c2CN(C(=O)N[C@H](CN(C)C)c2ccccc2)C3(C)C)cc1` [Compound 111, (S)-3-((4-acrylamidophenyl)amino)-N-(2-(dimethylamino)-1-phenylethyl)-6,6-dimethyl-4,6-dihydropyrrolo[3,4-c]pyrazole-5(1H)-carboxamide]: 100 to 1000 nM; for `C=CC(=O)N1CCC[C@@H](C(=O)Nc2n[nH]c3c2CN(C(=O)N[C@H](CN(C)C)c2ccccc2)C3(C)C)C1` [Compound 113, 3-((R)-1-acryloylpiperidine-3-carboxamido)-N-((S)-2-(dimethylamino)-1-phenylethyl)-6,6-dimethyl-4,6-dihydropyrrolo[3,4-c]pyrazole-5(1H)-carboxamide]: under 100 nM. Regarding `C=CC(=O)N1CCC[C@H](C(=O)Nc2n[nH]c3c2CN(C(=O)N[C@H](CN(C)C)c2ccccc2)C3(C)C)C1` [Compound 114, 3-((S)-1-acryloylpiperidine-3-carboxamido)-N-((S)-2-(dimethylamino)-1-phenylethyl)-6,6-dimethyl-4,6-dihydropyrrolo[3,4-c]pyrazole-5(1H)-carboxamide], the IC50 was under 100 nM. The same measure for `C=CC(=O)Nc1ccc(C(=O)N2CCCC(Nc3n[nH]c4c3CN(C(=O)N[C@H](CN(C)C)c3ccccc3)C4(C)C)C2)cc1` (stereo partly drawn) [Compound 115, 3-((1-(4-acrylamidobenzoyl)piperidin-3-yl)amino)-N-((S)-2-(dimethylamino)-1-phenylethyl)-6,6-dimethyl-4,6-dihydropyrrolo[3,4-c]pyrazole-5(1H)-carboxamide]: under 100 nM; for `C=CC(=O)Nc1ccc(C(=O)N2CCC(Nc3n[nH]c4c3CN(C(=O)N[C@H](CN(C)C)c3ccccc3)C4(C)C)CC2)cc1` [Compound 116, (S)-3-((1-(4-acrylamidobenzoyl)piperidin-4-yl)amino)-N-(2-(dimethylamino)-1-phenylethyl)-6,6-dimethyl-4,6-dihydropyrrolo[3,4-c]pyrazole-5(1H)-carboxamide]: under 100 nM; for `C=CC(=O)Nc1ccc(C(=O)N[C@H]2CCC[C@@H](Nc3n[nH]c4c3CN(C(=O)N[C@H](CN(C)C)c3ccccc3)C4(C)C)C2)cc1` [Compound 117, 3-(((1R,3S)-3-(4-acrylamidobenzamido)cyclohexyl)amino)-N-((S)-2-(dimethylamino)-1-phenylethyl)-6,6-dimethyl-4,6-dihydropyrrolo[3,4-c]pyrazole-5(1H)-carboxamide]: under 100 nM. The same measure for `C=CC(=O)Nc1ccc(C(=O)N[C@@H]2CCC[C@@H](Nc3n[nH]c4c3CN(C(=O)N[C@H](CN(C)C)c3ccccc3)C4(C)C)C2)cc1` [Compound 118, 3-(((1R,3R)-3-(4-acrylamidobenzamido)cyclohexyl)amino)-N-((S)-2-(dimethylamino)-1-phenylethyl)-6,6-dimethyl-4,6-dihydropyrrolo[3,4-c]pyrazole-5(1H)-carboxamide]: under 100 nM; for `C=CC(=O)Nc1ccc(C(=O)NC2CCC(Nc3n[nH]c4c3CN(C(=O)N[C@H](CN(C)C)c3ccccc3)C4(C)C)CC2)cc1` (stereo partly drawn) [Compound 119, (S)-3-((4-(4-acrylamidobenzamido)cyclohexyl)amino)-N-(2-(dimethylamino)-1-phenylethyl)-6,6-dimethyl-4,6-dihydropyrrolo[3,4-c]pyrazole-5(1H)-carboxamide]: under 100 nM; for `C=CC(=O)Nc1cccc(C(=O)Nc2n[nH]c3c2CN(C(=O)N[C@H](CN(C)C)c2ccccc2)C3(C)C)c1` [Compound 120, (S)-3-(3-acrylamidobenzamido)-N-(2-(dimethylamino)-1-phenylethyl)-6,6-dimethyl-4,6-dihydropyrrolo[3,4-c]pyrazole-5(1H)-carboxamide]: under 100 nM. The value for `C=CC(=O)N1CCC(C(=O)Nc2n[nH]c3c2CN(C(=O)N[C@H](CN(C)C)c2ccccc2)C3(C)C)CC1` [Compound 123, (S)-3-(1-acryloylpiperidine-4-carboxamido)-N-(2-(dimethylamino)-1-phenylethyl)-6,6-dimethyl-4,6-dihydropyrrolo[3,4-c]pyrazole-5(1H)-carboxamide] was under 100 nM. `C=CC(=O)Nc1ccc(C(=O)Nc2n[nH]c3c2CN(C(=O)N[C@H](CN(C)C)c2ccccc2)C3(C)C)cc1` [Compound 214, (S)-3-(4-acrylamidobenzamido)-N-(2-(dimethylamino)-1-phenylethyl)-6,6-dimethyl-4,6-dihydropyrrolo[3,4-c]pyrazole-5(1H)-carboxamide]: the IC50 is under 100 nM. The value for `CCC(=O)Nc1ccc(C(=O)Nc2n[nH]c3c2CN(C(=O)N[C@H](CN(C)C)c2ccccc2)C3(C)C)cc1` [Compound 215, (S)-N-(2-(dimethylamino)-1-phenylethyl)-6,6-dimethyl-3-(4-propionamidobenzamido)-4,6-dihydropyrrolo[3,4-c]pyrazole-5(1H)-carboxamide] was under 100 nM; that for `C=CC(=O)Nc1ccc(C(=O)Nc2n[nH]c3c2CN(C(=O)N[C@H](CN(C)C)c2ccccc2)C3(C)C)c(OC)c1` [Compound 216, (S)-3-(4-acrylamido-2-methoxybenzamido)-N-(2-(dimethylamino)-1-phenylethyl)-6,6-dimethyl-4,6-dihydropyrrolo[3,4-c]pyrazole-5(1H)-carboxamide] was under 100 nM; that for `C=CC(=O)Nc1ccc(C(=O)Nc2n[nH]c3c2CN(C(=O)N[C@H](CN(C)C)c2ccccc2)C3(C)C)cc1OC` [Compound 217, (S)-3-(4-acrylamido-3-methoxybenzamido)-N-(2-(dimethylamino)-1-phenylethyl)-6,6-dimethyl-4,6-dihydropyrrolo[3,4-c]pyrazole-5(1H)-carboxamide] was under 100 nM. `C=CC(=O)N[C@H]1CC[C@H](C(=O)Nc2n[nH]c3c2CN(C(=O)N[C@H](CN(C)C)c2ccccc2)C3(C)C)CC1` [Compound 222, 3-((1r,4S)-4-acrylamidocyclohexane-1-carboxamido)-N-((S)-2-(dimethylamino)-1-phenylethyl)-6,6-dimethyl-4,6-dihydropyrrolo[3,4-c]pyrazole-5(1H)-carboxamide] displayed an IC50 of under 100 nM. The value for `C=CC(=O)N1CCC(Nc2n[nH]c3c2CN(C(=O)N[C@H](CN(C)C)c2ccccc2)C3(C)C)CC1` [Compound 231, (5)-3-((1-acryloylpiperidin-4-yl)amino)-N-(2-(dimethylamino)-1-phenylethyl)-6,6-dimethyl-4,6-dihydropyrrolo[3,4-c]pyrazole-5(1H)-carboxamide] was under 100 nM. Turning to `C=CC(=O)N1CCCC(Nc2n[nH]c3c2CN(C(=O)N[C@H](CN(C)C)c2ccccc2)C3(C)C)C1` (stereo partly drawn) [Compound 232, 3-((1-acryloylpiperidin-3-yl)amino)-N-((S)-2-(dimethylamino)-1-phenylethyl)-6,6-dimethyl-4,6-dihydropyrrolo[3,4-c]pyrazole-5(1H)-carboxamide], the IC50 is under 100 nM. The value for `C=CC(=O)Nc1ccc(C(=O)Nc2n[nH]c3c2CN(C(=O)N[C@H](CN(C)C)c2ccccc2)C32CC2)cc1` [Compound 233, (S)-3′-(4-acrylamidobenzamido)-N-(2-(dimethylamino)-1-phenylethyl)-1′,4′-dihydro-5′H-spiro[cyclopropane-1,6′-pyrrolo[3,4-c]pyrazole]-5′-carboxamide] was under 100 nM. The value for `C=CC(=O)Nc1ccc(C(=O)Nc2n[nH]c3c2CN(C(=O)N[C@H](CN(C)C)c2ccccc2)[C@@H]3C(C)C)cc1` [Compound 234, (R)-3-(4-acrylamidobenzamido)-N-((S)-2-(dimethylamino)-1-phenylethyl)-6-isopropyl-4,6-dihydropyrrolo[3,4-c]pyrazole-5(1H)-carboxamide] was under 100 nM. The value for `C=CC(=O)Nc1ccc(C(=O)Nc2n[nH]c3c2CN(C(=O)N[C@H](CN(C)C)c2ccccc2)[C@H]3C(C)C)cc1` [Compound 235, (S)-3-(4-acrylamidobenzamido)-N-((S)-2-(dimethylamino)-1-phenylethyl)-6-isopropyl-4,6-dihydropyrrolo[3,4-c]pyrazole-5(1H)-carboxamide] was at least 1000 nM.
